Source: publication PMC2748937 (Nature structural & molecular biology, 2009)

Key:
Grb14 RA-PH K252A = biological target: T1, Grb14 RA-PH K252A (Homo sapiens, UniProt Q14449, K252A); assay: Fluorescence-polarization phosphoinositide binding, Grb14 RA-PH K252A; conditions: Grb14 K252A vs WT
T1 sequence (Q14449 106-356 K252A limits assumed): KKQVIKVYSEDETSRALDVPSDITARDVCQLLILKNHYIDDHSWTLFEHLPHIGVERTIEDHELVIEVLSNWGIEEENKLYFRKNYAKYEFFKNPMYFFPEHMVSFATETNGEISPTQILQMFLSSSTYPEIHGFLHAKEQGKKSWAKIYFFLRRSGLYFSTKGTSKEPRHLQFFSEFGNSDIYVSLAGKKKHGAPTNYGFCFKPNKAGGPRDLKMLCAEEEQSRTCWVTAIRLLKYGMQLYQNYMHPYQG

[1] = system: Grb14 recruitment to the insulin receptor; type: cell-based; conditions: co-immunoprecipitation, data not shown
crystal structure = biological target: the molecule itself; assay: crystal structure

## CCCCCC(=O)O[C@H](COC(=O)CCCCCNC(=O)CCC1=C(C)C2=Cc3ccc(-c4ccc(OC)cc4)n3[B-](F)(F)[N+]2=C1C)COP(=O)(O)O[C@H]1[C@H](O)[C@@H](OP(=O)(O)O)[C@H](OP(=O)(O)O)[C@@H](OP(=O)(O)O)[C@H]1O [345P3, PI(3,4,5)P3]
Grb14 RA-PH K252A
  decrease in binding affinity relative to wild-type: more than three

## COC[C@H]1OC(=O)c2coc3c2[C@@]1(C)C1=C(C3=O)[C@@H]2CCC(=O)[C@@]2(C)C[C@H]1OC(C)=O [wortmannin]
[1]
  effect on recruitment of Grb14 to the insulin receptor: PI-3K activity is not required for Grb14 recruitment to the receptor

B1: Grb10 RA-PH (residues 106-357 of human Grb10 isoform c (domain or fragment)
chain: GSHMAAAKQDVKVFSEDGTSKVVEILADMTARDLCQLLVYKSHSVDDNSWTLVEHHPHLGLERCLEDHELVVQVESTMASESKFLFRKNYAKYEFFKNPMNFFPEQMVTWSQQSNGSQTQLLQNFLNSSSSPEIQGFLHVKELGKKSWKKLYVCLRRSGLYCSTKGTSAAPRHLQLLADLEDSNIFSLIAGRKQYNAPTDHGLCIKPNKVRNETKELRLLCAEDEQTRTSWMTAFRLLKYGMLLYQNYRIPQQRKA
Crystal structure
  binding result: binds
